For orientation: EC50 means the concentration at which the effect is half-maximal.

The test system of test [1] is GAPDH RNA, Huh7 BB7 replicon cells. The test can be described thus: GAPDH RNA in genotype 1b (BB7) replicon cells. Format: cell-based. The conditions noted are these: Homo sapiens, Huh-7, 72 h, read-out: GAPDH EC50. As for the experimental part:
(§1) HCV genotype 1b, BB7 replicon-containing cell line is derived from a human hepatoma cell line (Huh7). A genotype 1a (H77 isolate; GenBank Accession #AF009606) is derived from replicon-containing cell line (Huh7-1a). The cell lines are cultured at 37° C. and 5% CO2 in Dulbecco's Modified Eagle Media (D-MEM; Invitrogen #11965-084) containing 10% fetal bovine serum (FBS; HyClone #SH300070) supplemented with 1% penicillin/streptomycin (Invitrogen #15140-122), 1% non-essential amino acids (Invitrogen #11140-050), 0.66 mM HEPES buffer, pH 7.55 (Invitrogen #15630-080), and 1 mg/mL G418 (Geneticin®, Invitrogen #11811-031 or #10131-027). Genotype 1a and genotype 1b replicon-containing cell lines contain approximately 1000 and 2000 RNA genome equivalents per cell, respectively, when maintained in a subconfluent monolayer in the presence of 1 mg/mL G418. For compound testing, G418 is eliminated and the FBS concentration is reduced to 2%.
Genotype 1b (BB7) and 1a (H77) cells are seeded in 96-well plates at a sub-confluent density (7000 cells/well) in medium containing 2% FBS without G418. […] The amounts of HCV, rRNA and GAPDH RNAs are quantified using the TaqMan RT-PCR assay.

The test system of another test is HCV 1a H77 replicon. The test can be described thus: Intracellular antiviral activity in HCV replicon, genotype 1a. Format: cell-based, HCV genotype 1a. The conditions noted are these: Hepatitis C virus, 72 h, read-out: HCV RNA EC50. As for the experimental part: as §1, with “Genotype 1a and genotype 1b replicon-containing cell lines contain approximately 1000 and 2000 RNA genome equivalents per cell, respectively, when maintained in a subconfluent monolayer in the presence of 1 mg/mL G418. For compound testing, G418 is eliminated and the FBS concentration is reduced to 2%.” left out
At the end of the incubation period, the replicon-containing cells are lysed in 150 μL of lysis buffer provided in the RNeasy 96 Kit (Qiagen #74181). […] For duplexed RT-PCR quantifying both HCV RNA and 18S rRNA, 0.08 μM rRNA forward primer, 0.1 μM rRNA reverse primer, and 0.2 μM rRNA probe are added (ABI #4308329). […]
The amounts of the HCV and 18S ribosomal RNAs in each sample are estimated by comparing the Ct cycles with those in the corresponding standard curves. […] The total RNA that is used for preparing the standard curve of the rRNA is quantified by O.D.260 measurement. Compound dose response is measured in a 10-point, 3-fold serial dilution series performed in triplicates and subjected to the same corresponding RT-PCR conditions as described above. […]

With `CC(C)(C)NC(=O)N[C@H](C(=O)N1C[C@H]2[C@@H]([C@H]1C(=O)NC(CC1CCC1)C(=O)C(N)=O)C2(C)C)C(C)(C)C` (stereo partly drawn) [SCH 503034, (1R,5S)—N-[3-amino-1-(cyclobutylmethyl)-2,3-dioxopropyl]-3-[2(S)-[[[(1,1-dimethylethyl)amino]carbonyl]amino]-3,3-dimethyl-1-oxobutyl]-6,6-dimethyl-3-azabicyclo[3.1.0]hexan-2(S)-carboxamide], the EC50 is more than 3200 nM in test [1] and 188 ± 18 nM in the test on HCV 1a H77 replicon.

As to `CNC(=O)c1c(-c2ccc(F)cc2)oc2cc(N(CCO)S(C)(=O)=O)c(C3CC3)cc12` [HCV-796, 5-cyclopropyl-2-(4-fluoro-phenyl)-6-[(2-hydroxy-ethyl)-methanesulfonyl-amino]-benzofuran-3-carboxylic acid methylamide], the EC50 in test [1] was more than 2430 nM; in the test on HCV 1a H77 replicon, 2.5 ± 1.7 nM.

The record behind these values is patent publication US20070224167A1, “Novel HCV inhibitor combinations and methods” (priority 2006, published 2007).
